Experimental findings from ChEMBL document CHEMBL4507319 (2021) are described below.

Experiment [1] addresses T1, Serine/threonine-protein kinase 3 (Homo sapiens) (UniProt Q13188).
T1 sequence (whole entry): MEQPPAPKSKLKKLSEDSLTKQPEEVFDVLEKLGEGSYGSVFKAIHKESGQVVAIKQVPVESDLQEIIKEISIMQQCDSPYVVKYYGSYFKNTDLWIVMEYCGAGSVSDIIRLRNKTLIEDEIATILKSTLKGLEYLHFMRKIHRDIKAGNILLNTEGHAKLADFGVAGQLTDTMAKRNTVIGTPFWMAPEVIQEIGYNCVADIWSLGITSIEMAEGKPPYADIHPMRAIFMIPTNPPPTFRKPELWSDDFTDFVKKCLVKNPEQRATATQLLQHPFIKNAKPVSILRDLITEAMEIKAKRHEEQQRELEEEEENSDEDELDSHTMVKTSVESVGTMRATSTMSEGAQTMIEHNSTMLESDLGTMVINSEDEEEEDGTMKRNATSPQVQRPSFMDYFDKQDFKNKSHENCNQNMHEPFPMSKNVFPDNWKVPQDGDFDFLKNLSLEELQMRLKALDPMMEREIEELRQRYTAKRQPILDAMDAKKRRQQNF
To be noted: Compound concentration 1000.0 nM.

Experiment [2] concerns the target Receptor-interacting serine/threonine-protein kinase 2 (Homo sapiens) (UniProt O43353). The settings on record: Compound concentration 1000.0 nM.
For experiment [3], the target named is Casein kinase I isoform gamma-3 (Homo sapiens) (UniProt Q9Y6M4). To be noted: Compound concentration 1000.0 nM.
Experiment [4] concerns the target Mitogen-activated protein kinase 4 (Homo sapiens) (UniProt P31152). The settings on record: Compound concentration 1000.0 nM.
For experiment [5], the target named is Macrophage colony-stimulating factor 1 receptor (Homo sapiens) (UniProt P07333). The settings on record: Compound concentration 1000.0 nM.
Experiment [6] concerns the target Cyclin-dependent kinase 14 (Homo sapiens) (UniProt O94921). To be noted: Compound concentration 1000.0 nM.
The target in experiment [7] is Tyrosine-protein kinase ABL1 (Homo sapiens) (UniProt P00519). The settings on record: Compound concentration 1000.0 nM.
Experiment [8] deals with Serine/threonine-protein kinase B-raf (Homo sapiens), P15056 [V600E]. To be noted: Compound concentration 1000.0 nM.
The target of experiment [9] is T2, Ephrin type-B receptor 1 (Homo sapiens) (UniProt P54762).
T2 sequence (whole entry): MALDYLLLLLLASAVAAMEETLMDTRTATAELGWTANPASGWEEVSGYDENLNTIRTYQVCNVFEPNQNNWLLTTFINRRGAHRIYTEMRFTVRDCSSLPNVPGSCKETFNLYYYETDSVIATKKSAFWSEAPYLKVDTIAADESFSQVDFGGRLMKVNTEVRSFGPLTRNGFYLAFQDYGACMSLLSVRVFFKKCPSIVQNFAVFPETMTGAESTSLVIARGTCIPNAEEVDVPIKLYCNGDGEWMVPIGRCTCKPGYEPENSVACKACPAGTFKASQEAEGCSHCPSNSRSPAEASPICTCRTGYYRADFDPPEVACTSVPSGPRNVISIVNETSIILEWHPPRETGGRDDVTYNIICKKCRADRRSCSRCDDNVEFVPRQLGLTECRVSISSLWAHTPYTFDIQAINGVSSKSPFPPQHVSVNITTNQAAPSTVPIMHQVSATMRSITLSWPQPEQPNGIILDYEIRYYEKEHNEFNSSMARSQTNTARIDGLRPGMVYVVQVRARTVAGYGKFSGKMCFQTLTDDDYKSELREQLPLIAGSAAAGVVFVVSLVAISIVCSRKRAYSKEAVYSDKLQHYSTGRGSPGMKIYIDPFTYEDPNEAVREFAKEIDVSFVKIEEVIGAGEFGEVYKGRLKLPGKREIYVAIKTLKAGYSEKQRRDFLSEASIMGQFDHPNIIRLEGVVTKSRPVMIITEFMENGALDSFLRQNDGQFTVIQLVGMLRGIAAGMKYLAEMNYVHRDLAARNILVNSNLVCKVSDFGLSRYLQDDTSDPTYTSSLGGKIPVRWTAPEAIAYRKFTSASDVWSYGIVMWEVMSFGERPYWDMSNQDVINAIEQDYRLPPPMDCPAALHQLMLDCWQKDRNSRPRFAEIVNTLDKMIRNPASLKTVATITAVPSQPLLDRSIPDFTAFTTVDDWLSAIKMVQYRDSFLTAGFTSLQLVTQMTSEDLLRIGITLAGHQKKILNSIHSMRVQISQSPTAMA
The settings on record: Compound concentration 1000.0 nM.

The target of experiment [10] is Serine/threonine-protein kinase PAK 5 (Homo sapiens) (UniProt Q9P286). To be noted: Compound concentration 1000.0 nM.
The target of experiment [11] is Cyclin-dependent kinase-like 1 (Homo sapiens) (UniProt Q00532). The settings on record: Compound concentration 1000.0 nM.
The target in experiment [12] is Dual serine/threonine and tyrosine protein kinase (Homo sapiens) (UniProt Q6XUX3). To be noted: Compound concentration 1000.0 nM.
Experiment [13] deals with Casein kinase II subunit alpha' (Homo sapiens) (UniProt P19784). The settings on record: Compound concentration 1000.0 nM.
For experiment [14], the target named is 5'-AMP-activated protein kinase catalytic subunit alpha-2 (Homo sapiens, UniProt P54646). To be noted: Compound concentration 1000.0 nM.
Experiment [15] has as its target Homeodomain-interacting protein kinase 2 (Homo sapiens) (UniProt Q9H2X6). The settings on record: Compound concentration 1000.0 nM.
Experiment [16] has as its target Interleukin-1 receptor-associated kinase 1 (Homo sapiens) (UniProt P51617). The settings on record: Compound concentration 1000.0 nM.
In experiment [17] the target is 5-hydroxytryptamine receptor 3A (Homo sapiens) (UniProt P46098). To be noted: Compound concentration 10.0 uM.
The target in experiment [18] is Serine/threonine-protein kinase 35 (Homo sapiens) (UniProt Q8TDR2). The settings on record: Compound concentration 1000.0 nM.
Experiment [19] deals with Hepatocyte growth factor receptor (Homo sapiens) (UniProt P08581). To be noted: Compound concentration 1000.0 nM.
Experiment [20] deals with 5'-AMP-activated protein kinase catalytic subunit alpha-1 (Homo sapiens, UniProt Q13131). Kind of experiment: Cellular mechanistic pACC assay using Colo-320 cells. It is filed as cell-based.
The target of experiment [21] is Serine/threonine-protein kinase MRCK gamma (Homo sapiens) (UniProt Q6DT37). The settings on record: Compound concentration 1000.0 nM.
The target of experiment [22] is G protein-coupled receptor kinase 6 (Homo sapiens) (UniProt P43250). Briefly: GRK6(h) Eurofins kinase panel. To be noted: Compound concentration 1.0 uM.
Another experiment has as its system MDA-MB-231. Kind of experiment: MDA-MB- 231 cell line Proliferation assay. It is filed as functional, Homo sapiens. The settings on record: time 3 day.
In experiment [23] the target is RAC-alpha serine/threonine-protein kinase (Homo sapiens) (UniProt P31749). Kind of experiment: PKBalpha (h) Eurofins kinase panel. To be noted: Compound concentration 1.0 uM.
Experiment [24] deals with Serine/threonine-protein kinase WNK2 (Homo sapiens) (UniProt Q9Y3S1). Briefly: WNK2(h) Eurofins kinase panel. The settings on record: Compound concentration 1.0 uM.
Experiment [25] has as its target Protein kinase C theta type (Homo sapiens) (UniProt Q04759). Briefly: PKCtheta (h) Eurofins kinase panel. To be noted: Compound concentration 1.0 uM.

Chain of 5-hydroxytryptamine receptor 3A (Homo sapiens) (P46098 whole entry): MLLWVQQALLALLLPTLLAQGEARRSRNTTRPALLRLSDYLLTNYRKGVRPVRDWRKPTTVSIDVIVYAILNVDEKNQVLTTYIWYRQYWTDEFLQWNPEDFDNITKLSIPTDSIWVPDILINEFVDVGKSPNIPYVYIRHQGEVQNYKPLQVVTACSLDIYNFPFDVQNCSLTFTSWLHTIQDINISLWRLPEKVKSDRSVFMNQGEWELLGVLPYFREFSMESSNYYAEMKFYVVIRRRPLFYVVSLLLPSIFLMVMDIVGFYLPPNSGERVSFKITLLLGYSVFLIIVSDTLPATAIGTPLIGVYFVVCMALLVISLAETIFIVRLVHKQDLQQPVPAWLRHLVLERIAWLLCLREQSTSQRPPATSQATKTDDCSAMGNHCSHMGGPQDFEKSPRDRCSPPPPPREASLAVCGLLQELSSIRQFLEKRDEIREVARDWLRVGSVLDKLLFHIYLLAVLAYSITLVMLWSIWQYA
Chain of Serine/threonine-protein kinase MRCK gamma (Homo sapiens) (Q6DT37 whole entry): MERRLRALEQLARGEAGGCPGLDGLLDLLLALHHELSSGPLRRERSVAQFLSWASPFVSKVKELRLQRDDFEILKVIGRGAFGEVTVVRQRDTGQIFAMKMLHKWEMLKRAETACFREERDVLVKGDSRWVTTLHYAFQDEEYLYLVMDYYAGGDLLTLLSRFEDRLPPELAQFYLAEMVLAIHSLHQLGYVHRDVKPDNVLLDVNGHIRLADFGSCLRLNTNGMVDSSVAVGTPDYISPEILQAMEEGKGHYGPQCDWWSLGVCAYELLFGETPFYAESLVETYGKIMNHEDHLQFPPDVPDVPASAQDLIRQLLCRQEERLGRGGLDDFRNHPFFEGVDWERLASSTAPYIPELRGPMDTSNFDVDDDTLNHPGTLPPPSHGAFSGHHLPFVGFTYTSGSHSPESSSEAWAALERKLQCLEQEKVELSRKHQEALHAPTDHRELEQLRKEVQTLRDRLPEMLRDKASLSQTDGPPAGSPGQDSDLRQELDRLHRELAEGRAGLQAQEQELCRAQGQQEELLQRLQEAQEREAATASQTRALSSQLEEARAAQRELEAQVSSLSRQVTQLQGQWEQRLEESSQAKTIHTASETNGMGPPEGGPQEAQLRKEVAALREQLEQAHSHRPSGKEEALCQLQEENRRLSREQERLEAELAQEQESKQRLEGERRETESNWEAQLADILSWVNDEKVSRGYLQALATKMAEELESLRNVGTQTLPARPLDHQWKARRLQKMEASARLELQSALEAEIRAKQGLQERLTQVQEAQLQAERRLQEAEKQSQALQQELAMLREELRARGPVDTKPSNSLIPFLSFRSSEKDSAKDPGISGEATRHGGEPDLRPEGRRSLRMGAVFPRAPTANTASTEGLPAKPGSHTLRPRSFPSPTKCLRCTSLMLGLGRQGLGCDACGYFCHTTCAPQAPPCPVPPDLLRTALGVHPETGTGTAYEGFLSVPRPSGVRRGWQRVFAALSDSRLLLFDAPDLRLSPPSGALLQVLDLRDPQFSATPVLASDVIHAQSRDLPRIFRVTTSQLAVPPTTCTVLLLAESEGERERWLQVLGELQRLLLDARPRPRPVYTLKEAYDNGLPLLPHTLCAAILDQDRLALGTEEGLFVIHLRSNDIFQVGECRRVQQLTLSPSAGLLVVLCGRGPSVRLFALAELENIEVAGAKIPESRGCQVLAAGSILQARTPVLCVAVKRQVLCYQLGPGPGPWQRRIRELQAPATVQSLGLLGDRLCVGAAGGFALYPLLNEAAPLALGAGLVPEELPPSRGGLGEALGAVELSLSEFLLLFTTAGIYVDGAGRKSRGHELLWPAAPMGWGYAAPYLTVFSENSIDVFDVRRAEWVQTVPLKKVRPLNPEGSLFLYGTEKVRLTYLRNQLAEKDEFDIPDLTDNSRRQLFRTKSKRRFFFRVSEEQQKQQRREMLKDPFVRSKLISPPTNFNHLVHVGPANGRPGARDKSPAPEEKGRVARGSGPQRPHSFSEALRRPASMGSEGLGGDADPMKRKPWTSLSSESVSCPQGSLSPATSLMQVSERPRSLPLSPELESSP
Chain of Homeodomain-interacting protein kinase 2 (Homo sapiens) (Q9H2X6 whole entry, looked up): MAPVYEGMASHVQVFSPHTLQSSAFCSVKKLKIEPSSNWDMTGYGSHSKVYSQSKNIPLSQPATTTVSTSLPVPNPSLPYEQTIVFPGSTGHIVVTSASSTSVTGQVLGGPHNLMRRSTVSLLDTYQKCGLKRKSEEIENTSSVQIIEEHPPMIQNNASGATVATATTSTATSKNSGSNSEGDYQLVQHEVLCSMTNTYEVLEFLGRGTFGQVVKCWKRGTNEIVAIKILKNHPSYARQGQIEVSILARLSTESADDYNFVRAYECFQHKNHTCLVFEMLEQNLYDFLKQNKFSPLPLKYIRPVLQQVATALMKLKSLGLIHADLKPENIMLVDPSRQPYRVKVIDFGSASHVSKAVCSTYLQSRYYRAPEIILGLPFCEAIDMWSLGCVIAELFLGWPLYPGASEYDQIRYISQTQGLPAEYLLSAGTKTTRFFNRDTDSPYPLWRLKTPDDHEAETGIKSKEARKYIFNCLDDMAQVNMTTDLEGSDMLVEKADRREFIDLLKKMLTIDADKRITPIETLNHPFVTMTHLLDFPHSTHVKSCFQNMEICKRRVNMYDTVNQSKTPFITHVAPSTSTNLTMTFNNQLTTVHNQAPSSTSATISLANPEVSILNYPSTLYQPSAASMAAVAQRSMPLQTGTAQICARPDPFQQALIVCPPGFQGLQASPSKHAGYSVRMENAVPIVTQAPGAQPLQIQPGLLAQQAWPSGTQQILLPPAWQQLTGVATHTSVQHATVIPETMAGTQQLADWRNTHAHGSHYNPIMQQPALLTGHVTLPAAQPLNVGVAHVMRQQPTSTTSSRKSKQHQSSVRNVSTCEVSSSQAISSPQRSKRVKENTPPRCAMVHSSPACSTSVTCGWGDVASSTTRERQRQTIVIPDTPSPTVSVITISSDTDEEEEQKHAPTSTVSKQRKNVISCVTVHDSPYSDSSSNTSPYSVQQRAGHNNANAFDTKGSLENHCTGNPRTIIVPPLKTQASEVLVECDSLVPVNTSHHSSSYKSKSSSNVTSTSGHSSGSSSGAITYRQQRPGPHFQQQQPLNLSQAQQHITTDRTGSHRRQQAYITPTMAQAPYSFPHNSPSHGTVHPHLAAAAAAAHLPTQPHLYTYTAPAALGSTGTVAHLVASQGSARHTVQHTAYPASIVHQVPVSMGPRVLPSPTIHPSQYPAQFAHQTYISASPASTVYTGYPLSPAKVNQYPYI
Chain of Casein kinase I isoform gamma-3 (Homo sapiens) (Q9Y6M4 whole entry, looked up, canonical isoform): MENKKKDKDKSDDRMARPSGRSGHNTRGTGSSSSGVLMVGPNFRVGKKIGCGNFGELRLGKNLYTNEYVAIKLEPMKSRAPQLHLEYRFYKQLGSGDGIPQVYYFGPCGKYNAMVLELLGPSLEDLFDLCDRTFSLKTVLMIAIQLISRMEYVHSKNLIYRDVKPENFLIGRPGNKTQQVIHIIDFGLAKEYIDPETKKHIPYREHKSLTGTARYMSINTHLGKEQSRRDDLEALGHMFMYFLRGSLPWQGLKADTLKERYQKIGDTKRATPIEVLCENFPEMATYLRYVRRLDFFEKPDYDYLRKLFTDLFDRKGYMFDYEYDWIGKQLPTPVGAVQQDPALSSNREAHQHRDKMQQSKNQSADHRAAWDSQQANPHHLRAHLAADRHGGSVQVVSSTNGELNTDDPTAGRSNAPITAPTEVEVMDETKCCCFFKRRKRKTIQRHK
Chain of Interleukin-1 receptor-associated kinase 1 (Homo sapiens) (P51617 whole entry, looked up): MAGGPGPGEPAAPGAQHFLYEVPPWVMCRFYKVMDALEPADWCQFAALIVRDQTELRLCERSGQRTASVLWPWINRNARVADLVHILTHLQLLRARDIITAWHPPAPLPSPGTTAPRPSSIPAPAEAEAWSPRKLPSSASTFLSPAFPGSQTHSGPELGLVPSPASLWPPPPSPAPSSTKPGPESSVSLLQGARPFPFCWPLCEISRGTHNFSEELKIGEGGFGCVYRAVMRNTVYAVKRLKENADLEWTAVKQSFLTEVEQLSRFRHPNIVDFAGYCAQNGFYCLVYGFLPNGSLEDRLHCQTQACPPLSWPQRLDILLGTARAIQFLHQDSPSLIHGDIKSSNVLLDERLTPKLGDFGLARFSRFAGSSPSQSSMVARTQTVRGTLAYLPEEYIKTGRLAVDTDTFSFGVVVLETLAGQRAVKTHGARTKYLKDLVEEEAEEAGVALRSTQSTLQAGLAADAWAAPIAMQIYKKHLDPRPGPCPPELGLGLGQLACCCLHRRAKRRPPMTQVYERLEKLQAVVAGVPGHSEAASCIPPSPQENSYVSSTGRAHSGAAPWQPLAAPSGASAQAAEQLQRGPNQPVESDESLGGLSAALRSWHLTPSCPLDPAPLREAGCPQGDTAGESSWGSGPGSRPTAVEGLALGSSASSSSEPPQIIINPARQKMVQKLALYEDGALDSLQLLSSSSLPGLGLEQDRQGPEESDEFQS
Chain of Serine/threonine-protein kinase PAK 5 (Homo sapiens) (Q9P286 whole entry, looked up): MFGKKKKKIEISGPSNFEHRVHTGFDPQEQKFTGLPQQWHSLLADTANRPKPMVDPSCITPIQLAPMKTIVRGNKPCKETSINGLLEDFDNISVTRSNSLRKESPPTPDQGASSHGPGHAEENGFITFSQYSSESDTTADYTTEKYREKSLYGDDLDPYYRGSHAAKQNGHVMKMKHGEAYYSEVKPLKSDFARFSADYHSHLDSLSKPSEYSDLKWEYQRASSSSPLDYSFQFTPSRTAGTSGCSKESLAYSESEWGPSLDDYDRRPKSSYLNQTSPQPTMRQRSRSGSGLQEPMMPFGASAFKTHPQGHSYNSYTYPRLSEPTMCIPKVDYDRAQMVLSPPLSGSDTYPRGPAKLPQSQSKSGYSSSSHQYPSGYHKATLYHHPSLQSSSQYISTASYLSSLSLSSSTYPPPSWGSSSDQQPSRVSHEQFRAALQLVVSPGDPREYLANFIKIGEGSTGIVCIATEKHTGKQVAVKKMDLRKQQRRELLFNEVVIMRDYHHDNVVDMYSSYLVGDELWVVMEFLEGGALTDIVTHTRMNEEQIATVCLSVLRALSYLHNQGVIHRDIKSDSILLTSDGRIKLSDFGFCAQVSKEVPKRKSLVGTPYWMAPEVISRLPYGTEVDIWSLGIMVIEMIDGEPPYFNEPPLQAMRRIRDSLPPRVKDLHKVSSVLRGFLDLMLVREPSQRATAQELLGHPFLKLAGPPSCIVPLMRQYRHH

Usually inhibition stands for how much of the control response was suppressed. For orientation: IC50 means the point on the concentration scale where inhibition reaches its midpoint. For `CC1=C(C#N)C(c2ccc3c(c2)c(NC(=O)c2ccccc2C)nn3C)C(C#N)=C(C)N1` [BAY-974], the residual activity in [1], in [2], in experiment [3], in [4], in experiment [5] and in experiment [6] was 100% throughout. Moreover, the residual activity in experiment [7] was 86%; in experiment [8], 62%; in [9] it was 99%; in experiment [10], 100%; in [11], 72%; in [12] it was 72%. In addition, the residual activity is 100% in experiment [13]; 99% in [14]; 73% in experiment [15]; 75% in experiment [16]; 86% in experiment [18]; 24% in experiment [19]. Also, the residual activity in experiment [21] was 92%. For the same molecule, the inhibition in [17] is 9.93%. In addition, the IC50 in experiment [20] is listed as > 30 µM (not active).

Regarding `CCc1ccccc1C(=O)Nc1n[nH]c2c(C)c(F)c(C3C(C#N)=C(C)N(C)C(C)=C3C#N)cc12` [BAY-3827], the residual activity was 80% in experiment [1]; 100% in experiment [2]; 100% in [3]; 96% in experiment [4]; 100% in experiment [5]; 83% in [6]. Further, the residual activity is 78% in experiment [7]; 100% in [8]; 100% in experiment [9]; 100% in experiment [10]; 87% in [11]; 95% in [12]. Also, the residual activity is 100% in [13]; 0% in experiment [14]; 100% in experiment [15]; 100% in experiment [16]; 100% in experiment [18]; 7.3% in experiment [19]. In experiment [21], the residual activity is 93%. The % residual kinase activity in [22] is 96%; in experiment [23], 91%; in [24] it was 87%; in experiment [25] it was 33%. Further, the “Cell Proliferation IC50” value with MDA-MB-231 is greater than 30 µM. For the same molecule, in experiment [17], the inhibition was 2.79%. This molecule had an IC50 in experiment [20] of 0.39 µM.
